# Assay results published in US20230119479A1, “A HISTONE DEACETYLASE INHIBITOR HAVING A NITROGEN-CONTAINING AROMATIC HETEROCYCLYL GROUP” (SHIONOGI & CO., LTD., priority 2019, published 2023).
# Tests used:
# [1] = Platelet toxicity test using human blood progenitor cells (WST); type: cell-based; details: human bone marrow CD34+ progenitor cells, maximum concentration 25 μM
# Method: Test Example 2: Platelet Toxicity Test Using Human Blood Progenitor Cells
# Human bone marrow CD34+ progenitor cells (Lonza, 2M-101B) stored at −80° C. were thawed, spun down at 150 g for 10 minutes at 20° C., and a medium (StemSpan Expansion Supplement, STEM CELL TECHNOLOGIES, ST-02696) to which cytokines (StemSpan SFEM II, STEM CELL TECHNOLOGIES, ST-09655) was added was added to adjust to 2×10^4/well, the mixture was seeded in 12well non-coat dish (Corning, 3513), was incubated for 10 days at 37° C., 5% CO2. After 10 days, the cells were collected and spun down at 150 g for 10 minutes at 20° C., and a medium (StemSpan Expansion Supplement) containing cytokines (StemSpan SFEM II) was added so that the number of cells became 2×10^5 cells/ml. 50 μl of the cell suspension was seeded to each well of a 96-well plate (Corning, 3596) and allowed to stand overnight in an incubator at 37° C., 5% CO2. The next day, 50 μl of the test compound was treated to each well and allowed to stand for 48 hours in the incubator at 37° C., 5% CO2 (n=2). At this time, the test compound dissolved in 100% DMSO was serially diluted with DMSO at a 3-fold ratio, and then a medium containing cytokine was added to adjust the final concentration to 25, 8.33, 2.78, 0.93, 0.31, 0.1 μM. After that, 10 μl of WST (Cell count reagent SF, Nacalai Tesque Inc., 07553-44) was added to each well, and the mixture was allowed to stand in the incubator for 4 hours at 37° C., 5% CO2, and then the multi-label reader 2030 ARVO X4 (PerkinElmer) was used to measure the absorbance. At this time, the absorbance at 450 nm and the absorbance at 620 nm were obtained, and the difference between 450 nm and 620 nm was used as the measured value. The measured values were analyzed by Excel and TIBCO Spotfire, and IC50 values were calculated. At this time, for control (−), the well without cells was set as n=6 for one row, and the average value was calculated, and for control (+), the well in which DMSO was added to the cells so as to have the same concentration as the compound treatment group was set as n=6 for one row, and the average value was calculated and corrected for each plate. For the test compound, the average value of n=2 was used.
# [2] = system: HDACs other than HDAC2 (HDAC2 knockout K562 cells); assay: Evaluation of HDAC2 selectivity: H3K9 histone acetylation in HDAC2 knockout K562 cells (AlphaLISA); type: cell-based; details: Homo sapiens, maximum concentration 83.3 μM, 100% = SAHA-treated group, read-out: maximum inhibition rate (H3K9 histone acetylation);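 also: 0% inhibition equals DMSO-treated group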
# Method: Test Example 3: Evaluation of HDAC2 Selectivity
# K562 cells were cultured in RPMI1640 medium (SIGMA, R8758) containing 10% FBS (Hyclone, SH30070.03) and 1% penicillin streptomycin (Nacalai Tesque, 26252-94). CompoZr (registered trademark) Zinc Finger Nuclease (Merck) targeting HDAC2 sequences was transfected into K562 cells by electroporation using Nucleofector (Lonza). The cells after transfection were subjected to limiting dilution, and DNA sequencing was performed on the cell clones in which mutations were detected by the PCR method. Cell clones lacking a base number that was not a multiple of 3 in both alleles were identified, and a single-cell cloning was performed on the cell clones to produce HDAC2 knockout K562 cells. It was confirmed that the expression of HDAC2 was not detected by Western blotting in the prepared cells.
# By evaluating the H3K9 histone acetylation-enhancing activity of the test compound using HDAC2 knockout K562 cells, the inhibitory activity against HDACs other than HDAC2 was evaluated.
# HDAC2 knockout K562 cells stored in liquid nitrogen were thawed and cultured in RPMI1640 medium (Nacalai Tesque, 30264-85) for 2 to 4 days. Using Echo555 (Beckman Coulter), the test compound was dispensed to the assay plate (Corning, 4513) at 37.5 nL/well, and then HDAC2 knockout K562 cells were seeded to 125 cells/4.5 μL/well, and stirred. At this time, the test compound was treated at 8 points (n=2) in the 3-fold dilution series from the maximum concentration of 83.3 μM. After culturing at 37° C. and 5% CO2 overnight, 1.5 μL/well of Lysis buffer (PerkinElmer, AL009F1) was added, and after incubating at room temperature for 15 minutes, 3 μL/well of Extraction buffer (PerkinElmer, AL009F2) was added and the mixture was incubated for 10 minutes at room temperature. Then, 5× antibody solution (prepared by diluting anti-H3K9 Acceptor beads (PerkinElmer, AL114M) 75-fold with a detection buffer prepared by diluting 10×Cell-Histone Detection buffer (PerkinElmer, AL009F3) 10-fold with ultrapure water, and diluting Biotinylated anti H3 antibody (PerkinElmer, AL118M) diluted 150 times with the detection buffer) was added at 3 μL/well, and after incubating at room temperature for 60 minutes, then 5× donor beads solution (prepared by diluting Streptavidin Donor beads (PerkinElmer, 6760002) 75 fold with the detection buffer) was added at 3 μL/well, and the mixture was incubated again at room temperature for 60 minutes, and then the emission value was measured using PHERAstar (BMG LABTECH) (excitation=680 nm, […]). […] For cell toxicity, cell viability rate was evaluated by the PrestoBlue method.
# [3] = Metabolism stability test; type: in vitro ADME; details: human liver microsomes 0.5 mg protein/mL, 30 minutes, 37° C., NADPH
# Method: Using commercially available pooled human hepatic microsomes, a compound of the present invention is reacted for a constant time, and a remaining rate is calculated by comparing a reacted sample and an unreacted sample, thereby, a degree of metabolism in liver is assessed.
# A reaction is performed (oxidative reaction) at 37° C. for 0 minute or 30 minutes in the presence of 1 mmol/L NADPH in 0.2 mL of a buffer (50 mmol/L Tris-HCl pH 7.4, 150 mmol/L potassium chloride, 10 mmol/L magnesium chloride) containing 0.5 mg protein/mL of human liver microsomes. After the reaction, 50 μL of the reaction solution is added to 100 μL of a methanol/acetonitrile=1/1 (v/v), mixed and centrifuged at 3000 rpm for 15 minutes. The compound of the present invention in the supernatant is quantified by LC/MS/MS or Solid Phase Extraction (SPE)/MS, and a remaining amount of the compound of the present invention after the reaction is calculated, letting a compound amount at 0 minute reaction time be 100%. The hydrolysis reaction is carried out in the absence of NADPH, and the glucuronidation reaction is carried out in the presence of 5 mmol/L UDP-glucuronic acid instead of NADPH, and the same operation is carried out thereafter. The dilution concentration and dilution solvent are changed as necessary.
Structure (SMILES),remaining rate after reaction [3] [%],IC50 at 48 h [1] [µM],inhibition at up to 83.3 µM [2] [%]
CCOc1cnc(C(=O)Nc2cc(-c3ccc(F)nc3)ccc2N)cn1 [Compound I-118],–,> 25,8
Cn1cc(-c2cnc(C(=O)Nc3nc(-c4cccs4)ccc3N)cn2)cn1 [Compound I-017],81.8,> 25,5
Cn1cc(-c2cnc(C(=O)Nc3cc(-c4ccc(F)nc4)ccc3N)cn2)cn1 [Compound I-080],84.8,> 25,7
C[C@H](F)COc1cnc(C(=O)Nc2cc(-c3ccc(F)nc3)ccc2N)cn1 (racemic) [Compound I-125],80.4,> 25,6
Cn1cc(-c2ccc(N)c(NC(=O)c3cnc(C4CC4)cn3)c2)cn1 [Compound I-130],92.9,> 25,–

# More lines, main results first:
remaining rate after reaction [3] [%],Structure (SMILES),IC50 at 48 h [1] [µM],inhibition at up to 83.3 µM [2] [%]
103,N#Cc1ccc(C(=O)Nc2cc(-c3ccc(F)nc3)ccc2N)nc1 [Compound I-092],> 25,6
95.3,Cn1cc(-c2cnc(C(=O)Nc3nc(-n4cccc4)ccc3N)cn2)cn1 [Compound I-023],> 25,8
